Source: ChEMBL document CHEMBL3808380, “Discovery of a novel covalent non-β-lactam inhibitor of the metallo-β-lactamase NDM-1” (Bioorg Med Chem, 2016)
Activity calls are given as the source filed them. The calls are words filed in the database; no cut-off is given here.

How the values were obtained:
[1] = Inhibition of beta-lactamase VIM-2 (unknown origin)
[2] = target: Metallo-beta-lactamase type 2 (Klebsiella pneumoniae) (UniProt C7C422); conditions: 200 uM
[3] = target: T1, Metallo-beta-lactamase type 2 (Klebsiella pneumoniae, UniProt C7C422); experiment: Time-dependent inhibition of wild type Klebsiella pneumoniae 6xHis-tagged metallo-beta-lactamase NDM-1 expressed in Escherichia coli BL21 (DE3)pLysS
[4] = target: T1, Metallo-beta-lactamase type 2; experiment: Time-dependent inhibition of wild type Klebsiella pneumoniae 6xHis-tagged metallo-beta-lactamase NDM-1 expressed in Escherichia coli BL21 (DE3)pLysS assessed as inhibition constant for initial non-covalant complex
[5] = target: Metallo-beta-lactamase type 2 (Klebsiella pneumoniae) (UniProt C7C422); conditions: 2 uM
Klebsiella pneumoniae [6] = experiment: Inhibition of Klebsiella pneumoniae 6xHis-tagged metallo-beta-lactamase NDM-1 K224A mutant expressed in Escherichia coli BL21 (DE3)pLysS assessed as hydrolysis of imipenem up to 750 uM after 20 mins
Klebsiella pneumoniae [7] = experiment: Binding affinity to Klebsiella pneumoniae 6xHis-tagged metallo-beta-lactamase NDM-1 K224A mutant expressed in Escherichia coli BL21 (DE3)pLysS at 1.5 mM after 3 hrs by ESI-MS analysis

Metallo-beta-lactamase type 2 (Klebsiella pneumoniae), sequence (C7C422 whole entry): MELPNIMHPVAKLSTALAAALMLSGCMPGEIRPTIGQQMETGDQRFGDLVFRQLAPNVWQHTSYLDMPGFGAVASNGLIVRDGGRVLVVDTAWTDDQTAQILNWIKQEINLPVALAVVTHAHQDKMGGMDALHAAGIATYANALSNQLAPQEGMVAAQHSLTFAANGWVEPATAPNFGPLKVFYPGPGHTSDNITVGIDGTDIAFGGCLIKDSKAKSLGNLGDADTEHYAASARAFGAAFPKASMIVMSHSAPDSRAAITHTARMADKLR
T1 sequence (C7C422 whole entry): as above

## O=Cc1coc2ccccc2c1=O
[1]
  inhibition: inactive
[2]
  inhibition: tde
[3]
  Ki: 0.58 µM
[4]
  Ki: 76 µM
[5]
  inhibition: tde
Klebsiella pneumoniae [6]
  inhibition: inactive
Klebsiella pneumoniae [7]
  Activity: inactive
